Reference: patent US12077503B2, “Substituted cyclic amides and their use as herbicides” (FMC CORPORATION, priority 2015, dated 2024)

Assays:
Assay type in all cases: in vivo
[1] = system: ivy-leaved morning glory (Ipomoea hederacea); assay: Test G Pre-Emergence Protocol; settings: Ipomoea, pre-emergence, 312 h, evaluated after 13 days; for pest or weed control at 15.625 g/ha: 15.625 g ai/ha, read-out: Morning-glory, Ivy-leaved damage rating (100=total damage to plant; 0=no damage to plant); for pest or weed control at 62.5 g/ha: 62.5 g ai/ha, 100=total damage to plant, 0=no damage to plant, read-out: plant damage rating, Morningglory, Ivy-leaved; for pest or weed control at 250 g/ha: 250 g ai/ha, read-out: Morningglory, Ivy-leaved damage rating (100=total damage to plant; 0=no damage to plant)
How it was run: (§1)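 Pre-emergence spray, 15.625/62.5/250 g/ha, vehicle acetone:water 50:50 + 0.5% Tween 20, applied 1 d after sowing. Glasshouse 24/16° C, 14 h light, 65% RH, watered twice daily. Visual damage rating at 13 d, 0–100 scale.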

[2] = system: barnyardgrass (Echinochloa crus-galli); assay: Test G Pre-Emergence Protocol; settings: Echinochloa crus-galli, pre-emergence, 312 h, evaluated after 13 days; for pest or weed control at 15.625 g/ha: 15.625 g ai/ha, read-out: Barnyard grass damage rating (100=total damage to plant; 0=no damage to plant); for pest or weed control at 62.5 g/ha: 62.5 g ai/ha, 100=total damage to plant, 0=no damage to plant, read-out: plant damage rating, Barnyardgrass; for pest or weed control at 250 g/ha: 250 g ai/ha, read-out: Barnyardgrass damage rating (100=total damage to plant; 0=no damage to plant)
How it was run: as §1

corn (Zea mays) [3] = assay: Test G Pre-Emergence Protocol; settings: Zea mays, pre-emergence, 312 h, evaluated after 13 days; for plant injury at 15.625 g/ha: 15.625 g ai/ha; for plant injury at 15.625 g/ha / plant injury at 250 g/ha: read-out: Corn damage rating (100=total damage to plant; 0=no damage to plant); for plant injury at 62.5 g/ha: 62.5 g ai/ha, 100=total damage to plant, 0=no damage to plant, read-out: plant damage rating, Corn; for plant injury at 250 g/ha: 250 g ai/ha
How it was run: as §1

[4] = system: redroot pigweed (Amaranthus retroflexus); assay: Test G Pre-Emergence Protocol; settings: Amaranthus retroflexus, pre-emergence, 312 h, evaluated after 13 days; for pest or weed control at 15.625 g/ha: 15.625 g ai/ha; for pest or weed control at 15.625 g/ha / pest or weed control at 250 g/ha: read-out: Pigweed, Redroot damage rating (100=total damage to plant; 0=no damage to plant); for pest or weed control at 62.5 g/ha: 62.5 g ai/ha, 100=total damage to plant, 0=no damage to plant, read-out: plant damage rating, Pigweed, Redroot; for pest or weed control at 250 g/ha: 250 g ai/ha
How it was run: as §1

[5] = system: velvetleaf (Abutilon theophrasti); assay: Test G Pre-Emergence Protocol; settings: Abutilon theophrasti, pre-emergence, 312 h, evaluated after 13 days; for pest or weed control at 15.625 g/ha: 15.625 g ai/ha; for pest or weed control at 15.625 g/ha / pest or weed control at 250 g/ha: read-out: Velvetleaf damage rating (100=total damage to plant; 0=no damage to plant); for pest or weed control at 62.5 g/ha: 62.5 g ai/ha, 100=total damage to plant, 0=no damage to plant, read-out: plant damage rating, Velvetleaf; for pest or weed control at 250 g/ha: 250 g ai/ha
How it was run: as §1

[6] = system: giant foxtail (Setaria faberi); assay: Test G Pre-Emergence Protocol; settings: Setaria faberi, pre-emergence, 312 h, evaluated after 13 days; for pest or weed control at 15.625 g/ha: 15.625 g ai/ha; for pest or weed control at 15.625 g/ha / pest or weed control at 250 g/ha: read-out: Foxtail, Giant damage rating (100=total damage to plant; 0=no damage to plant); for pest or weed control at 62.5 g/ha: 62.5 g ai/ha, 100=total damage to plant, 0=no damage to plant, read-out: plant damage rating, Foxtail, Giant; for pest or weed control at 250 g/ha: 250 g ai/ha
How it was run: as §1

[7] = system: ivy-leaved morning glory (Ipomoea hederacea); assay: Test G Post-Emergence Protocol; settings: Ipomoea, post-emergence, 312 h; for pest or weed control at 15.625 g/ha: 15.625 g ai/ha, evaluated after 13 days (100=total damage to plant; 0=no damage to plant), read-out: Morningglory, Ivy-leaved damage rating; for pest or weed control at 62.5 g/ha: 62.5 g ai/ha, read-out: Morningglory, Ivy-leaved damage rating (100=total damage to plant; 0=no damage to plant); for pest or weed control at 62.5 g/ha / pest or weed control at 250 g/ha: evaluated after 13 days; for pest or weed control at 250 g/ha: 250 g ai/ha, read-out: damage to plant, Morningglory, Ivy-leaved (100=total damage to plant; 0=no damage to plant)
How it was run: (§2)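 A glasshouse post-emergence test: 8-day-old plants sprayed at 15.625, 62.5 or 250 g/ha, then grown at 24/16 °C day/night with 14 h light and 65% humidity. Damage rated 13 days later, 0–100.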

[8] = system: barnyardgrass (Echinochloa crus-galli); assay: Test G Post-Emergence Protocol; settings: Echinochloa crus-galli, post-emergence, 312 h; for pest or weed control at 15.625 g/ha: 15.625 g ai/ha, evaluated after 13 days (100=total damage to plant; 0=no damage to plant), read-out: Barnyardgrass damage rating; for pest or weed control at 62.5 g/ha: 62.5 g ai/ha, read-out: Barnyardgrass damage rating (100=total damage to plant; 0=no damage to plant); for pest or weed control at 62.5 g/ha / pest or weed control at 250 g/ha: evaluated after 13 days; for pest or weed control at 250 g/ha: 250 g ai/ha, read-out: damage to plant, Barnyardgrass (100=total damage to plant; 0=no damage to plant)
How it was run: as §2

corn (Zea mays) [9] = assay: Test G Post-Emergence Protocol; settings: Zea mays, post-emergence, 312 h; for plant injury at 15.625 g/ha: 15.625 g ai/ha, evaluated after 13 days (100=total damage to plant; 0=no damage to plant), read-out: Corn damage rating; for plant injury at 62.5 g/ha: 62.5 g ai/ha, read-out: Corn damage rating (100=total damage to plant; 0=no damage to plant); for plant injury at 62.5 g/ha / plant injury at 250 g/ha: evaluated after 13 days; for plant injury at 250 g/ha: 250 g ai/ha, read-out: damage to plant, Corn (100=total damage to plant; 0=no damage to plant)
How it was run: as §2

[10] = system: redroot pigweed (Amaranthus retroflexus); assay: Test G Post-Emergence Protocol; settings: Amaranthus retroflexus, post-emergence, 312 h; for pest or weed control at 15.625 g/ha: 15.625 g ai/ha, evaluated after 13 days (100=total damage to plant; 0=no damage to plant), read-out: Pigweed, Redroot damage rating; for pest or weed control at 62.5 g/ha: 62.5 g ai/ha, read-out: Pigweed, Redroot damage rating (100=total damage to plant; 0=no damage to plant); for pest or weed control at 62.5 g/ha / pest or weed control at 250 g/ha: evaluated after 13 days; for pest or weed control at 250 g/ha: 250 g ai/ha, read-out: damage to plant, Pigweed, Redroot (100=total damage to plant; 0=no damage to plant)
How it was run: as §2

[11] = system: velvetleaf (Abutilon theophrasti); assay: Test G Post-Emergence Protocol; settings: Abutilon theophrasti, post-emergence, 312 h; for pest or weed control at 15.625 g/ha: 15.625 g ai/ha, evaluated after 13 days (100=total damage to plant; 0=no damage to plant), read-out: Velvetleaf damage rating; for pest or weed control at 62.5 g/ha: 62.5 g ai/ha, read-out: Velvetleaf damage rating (100=total damage to plant; 0=no damage to plant); for pest or weed control at 62.5 g/ha / pest or weed control at 250 g/ha: evaluated after 13 days; for pest or weed control at 250 g/ha: 250 g ai/ha, read-out: damage to plant, Velvetleaf (100=total damage to plant; 0=no damage to plant)
How it was run: as §2

[12] = system: giant foxtail (Setaria faberi); assay: Test G Post-Emergence Protocol; settings: Setaria faberi, post-emergence, 312 h; for pest or weed control at 15.625 g/ha: 15.625 g ai/ha, evaluated after 13 days (100=total damage to plant; 0=no damage to plant), read-out: Foxtail, Giant damage rating; for pest or weed control at 62.5 g/ha: 62.5 g ai/ha, read-out: Foxtail, Giant damage rating (100=total damage to plant; 0=no damage to plant); for pest or weed control at 62.5 g/ha / pest or weed control at 250 g/ha: evaluated after 13 days; for pest or weed control at 250 g/ha: 250 g ai/ha, read-out: damage to plant, Foxtail, Giant (100=total damage to plant; 0=no damage to plant)
How it was run: as §2

Row | Structure (SMILES) | pest or weed control at 15.625 g/ha [1] | pest or weed control at 62.5 g/ha [1] | pest or weed control at 250 g/ha [1] | pest or weed control at 15.625 g/ha [2] | pest or weed control at 62.5 g/ha [2] | pest or weed control at 250 g/ha [2] | plant injury at 15.625 g/ha (corn (Zea mays) [3]) | plant injury at 62.5 g/ha (corn (Zea mays) [3]) | plant injury at 250 g/ha (corn (Zea mays) [3]) | pest or weed control at 15.625 g/ha [4] | pest or weed control at 62.5 g/ha [4] | pest or weed control at 250 g/ha [4] | pest or weed control at 15.625 g/ha [5] | pest or weed control at 62.5 g/ha [5] | pest or weed control at 250 g/ha [5] | pest or weed control at 15.625 g/ha [6] | pest or weed control at 62.5 g/ha [6] | pest or weed control at 250 g/ha [6] | pest or weed control at 15.625 g/ha [7] | pest or weed control at 62.5 g/ha [7] | also measured
1 | C[C@@]1(C(=O)Nc2cccc(F)c2F)C(=O)NC[C@@H]1c1ccc(C(F)(F)F)cc1 (racemic) [Compound 1405] | 0% | 0% | 0% | 0% | 0% | 0% | 0% | 0% | 0% | 0% | 0% | 0% | 0% | 0% | 0% | 0% | 0% | 0% | 0% | 0% | pest or weed control at 250 g/ha [7]: 0%; pest or weed control at 15.625 g/ha [8]: 0%; pest or weed control at 62.5 g/ha [8]: 0%; pest or weed control at 250 g/ha [8]: 0%; plant injury at 15.625 g/ha (corn (Zea mays) [9]): 0%; plant injury at 62.5 g/ha (corn (Zea mays) [9]): 0%; plant injury at 250 g/ha (corn (Zea mays) [9]): 0%; pest or weed control at 15.625 g/ha [10]: 0%; pest or weed control at 62.5 g/ha [10]: 0%; pest or weed control at 250 g/ha [10]: 0%; pest or weed control at 15.625 g/ha [11]: 0%; pest or weed control at 62.5 g/ha [11]: 0%; pest or weed control at 250 g/ha [11]: 0%; pest or weed control at 15.625 g/ha [12]: 0%; pest or weed control at 62.5 g/ha [12]: 0%; pest or weed control at 250 g/ha [12]: 0%
2 | C=CCc1c(Cl)cccc1NC(=O)[C@H]1C(=O)N(C)C[C@@H]1c1ccc(C(F)(F)F)cc1 (racemic) [Compound 1440] | 0% | 0% | 0% | 0% | 10% | 40% | 0% | 0% | 0% | 0% | 0% | 0% | 0% | 0% | 0% | 0% | 50% | 80% | 0% | 0% | pest or weed control at 250 g/ha [7]: 10%; pest or weed control at 15.625 g/ha [8]: 0%; pest or weed control at 62.5 g/ha [8]: 0%; pest or weed control at 250 g/ha [8]: 10%; plant injury at 15.625 g/ha (corn (Zea mays) [9]): 0%; plant injury at 62.5 g/ha (corn (Zea mays) [9]): 10%; plant injury at 250 g/ha (corn (Zea mays) [9]): 20%; pest or weed control at 15.625 g/ha [10]: 0%; pest or weed control at 62.5 g/ha [10]: 10%; pest or weed control at 250 g/ha [10]: 20%; pest or weed control at 15.625 g/ha [11]: 0%; pest or weed control at 62.5 g/ha [11]: 0%; pest or weed control at 250 g/ha [11]: 0%; pest or weed control at 15.625 g/ha [12]: 0%; pest or weed control at 62.5 g/ha [12]: 20%; pest or weed control at 250 g/ha [12]: 60%
